IC50 data for 23 compounds are collected here from patent publication US20250129078A1, “ERBB2 INHIBITORS” (Cogent Biosciences, Inc., priority 2023, published 2025).

The target of this experiment is EGFR WT (Homo sapiens (Human), UniProt P00533). The experiment is described as follows: ErbB enzyme assay (CisBio HTRF-KinEASE-TK), EGFR WT. The format is biochemical. To be noted: ATP at Km (25 μM), 1 h incubation. The protocol:
In vitro enzyme assays based on CisBio HTRF-KinEASE-TK technology were used to determine compound potencies. […]. Compounds were prepared as a three-fold serial dilution in DMSO and added to the assay to give the appropriate final concentration. After a 1 h incubation at ambient temperature, the reaction was quenched by adding 10 μL of 62.5 nM Sa-XL665 and 0.25×TK-Ab-Cryptate in HTRF detection buffer (all from CisBio, part of cat #62TKOPEC). After another 1 h incubation at ambient temperature, the extent of substrate phosphorylation was determined using a PerkinElmer EnVision multimode plate reader via time-resolved fluorescence dual wavelength detection. The percent of control (POC) was calculated using the ratio of emission at […] to the emission at 620 nm. One hundred POC was determined using DMSO only controls (no test compounds present) and zero POC was determined using pre-quenched controls reactions. A 4-parameter logistic equation was fit to the POC values as a function of the test compound concentration and the IC50 value was determined as the point where the curve crossed 50 POC.
On the technique in general: In TR-FRET formats the signal depends on donor and acceptor labels being close together.

EGFR WT, sequence (P00533 25-1210): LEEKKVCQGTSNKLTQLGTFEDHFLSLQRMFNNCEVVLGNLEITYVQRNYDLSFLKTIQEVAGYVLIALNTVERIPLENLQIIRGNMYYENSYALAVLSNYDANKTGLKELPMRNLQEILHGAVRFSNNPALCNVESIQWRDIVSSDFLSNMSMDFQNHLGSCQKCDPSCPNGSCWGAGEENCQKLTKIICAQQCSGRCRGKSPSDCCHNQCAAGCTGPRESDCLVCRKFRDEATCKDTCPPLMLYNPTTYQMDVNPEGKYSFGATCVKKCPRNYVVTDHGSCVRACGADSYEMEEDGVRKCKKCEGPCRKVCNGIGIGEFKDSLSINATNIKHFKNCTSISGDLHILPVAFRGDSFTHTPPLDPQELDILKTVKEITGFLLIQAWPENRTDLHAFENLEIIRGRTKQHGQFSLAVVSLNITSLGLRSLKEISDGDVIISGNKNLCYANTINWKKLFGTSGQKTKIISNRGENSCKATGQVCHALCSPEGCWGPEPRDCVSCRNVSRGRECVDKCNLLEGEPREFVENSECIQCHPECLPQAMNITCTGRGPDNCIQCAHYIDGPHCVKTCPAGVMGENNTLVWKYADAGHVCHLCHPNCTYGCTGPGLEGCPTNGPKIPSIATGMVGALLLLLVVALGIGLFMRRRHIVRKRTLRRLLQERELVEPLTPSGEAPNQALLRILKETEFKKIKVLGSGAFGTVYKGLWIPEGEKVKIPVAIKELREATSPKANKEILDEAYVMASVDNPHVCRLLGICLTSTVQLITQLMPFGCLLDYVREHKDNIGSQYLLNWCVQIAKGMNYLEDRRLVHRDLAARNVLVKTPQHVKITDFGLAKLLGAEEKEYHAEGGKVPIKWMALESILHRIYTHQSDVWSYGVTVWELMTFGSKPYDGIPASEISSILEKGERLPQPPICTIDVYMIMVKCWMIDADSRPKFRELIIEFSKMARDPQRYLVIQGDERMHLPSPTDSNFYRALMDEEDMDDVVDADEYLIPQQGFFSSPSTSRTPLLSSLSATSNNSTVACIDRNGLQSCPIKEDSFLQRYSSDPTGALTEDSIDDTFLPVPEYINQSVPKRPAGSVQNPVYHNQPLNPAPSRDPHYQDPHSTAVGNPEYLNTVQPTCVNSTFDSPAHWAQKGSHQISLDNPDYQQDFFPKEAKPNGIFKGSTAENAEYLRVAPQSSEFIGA

Regarding `C=CC(=O)N1CCN(c2ncc3ncnc(Nc4ccc(Oc5ccc6c(c5)nnn6C)c(C)c4)c3n2)C[C@@H]1COC` [Compound 116, (R)-1-(2-(methoxymethyl)-4-(8-((3-methyl-4-((1-methyl-1H-benzo[d][1,2,3]triazol-5-yl)oxy)phenyl)amino)pyrimido[5,4-d]pyrimidin-2-y1)piperazin-1-yl)prop-2-en-1-one], the IC50 – broadly, the concentration that gives 50% inhibition – lay in the range of 100 to 500 nM.
With `C=CC(=O)N[C@H]1CCN(c2ccc3ncnc(Nc4ccc(Oc5ccc6c(c5)nnn6C)c(C)c4F)c3n2)CC1(C)C` [Compound 343, (S)-N-(1-(4-((2-fluoro-3-methyl-4-((1-methyl-1H-benzo[d][1,2,3]triazol-5-yl)oxy)phenyl)amino)pyrido[3,2-d]pyrimidin-6-yl)-3,3-dimethylpiperidin-4-yl)acrylamide] the figure was 100 to 500 nM; with `C=CC(=O)N1CCN(c2ccc3ncnc(Nc4ccc(Oc5cc6nnn(C)c6cc5F)c(C)c4)c3n2)C[C@H]1C` [Compound 262, (R)-1-(4-(4-((4-((6-fluoro-1-methyl-1H-benzo[d][1,2,3]triazol-5-yl)oxy)-3-methylphenyl)amino)pyrido[3,2-d]pyrimidin-6-yl)-2-methylpiperazin-1-yl)prop-2-en-1-one], 100 to 500 nM; with `C=CC(=O)N1CCN(c2ncc3ncnc(Nc4ccc(Oc5ccc6c(c5)nnn6C)c(C)c4)c3n2)C[C@H]1CO` [Compound 24, (S)-1-(2-(hydroxymethyl)-4-(8-((3-methyl-4-((1-methyl-1H-benzo[d][1,2,3]triazol-5-yl)oxy)phenyl)amino)pyrimido[5,4-d]pyrimidin-2-yl)piperazin-1-yl)prop-2-en-1-one], 100 to 500 nM.
With `C=CC(=O)N1CCN(c2ccc3ncnc(Nc4cc(C)c(Oc5ccc6c(c5)nnn6C)cc4OC(F)F)c3n2)CC1(C)C` [Compound 305, 1-(4-(4-((2-(difluoromethoxy)-5-methyl-4-((1-methyl-1H-benzo[d][1,2,3]triazol-5-yl)oxy)phenyl)amino)pyrido[3,2-d]pyrimidin-6-yl)-2,2-dimethylpiperazin-1-yl)prop-2-en-1-one] the figure was 100 to 500 nM; with `C=C(F)C(=O)N1C2CCC1CN(c1ncc3ncnc(Nc4ccc(Oc5ccc6c(c5)nnn6C)c(C)c4)c3n1)C2` [Compound 51, 2-fluoro-1-(3-(8-((3-methyl-4-((1-methyl-1H-benzo[d][1,2,3]triazol-5-yl)oxy)phenyl)amino)pyrimido [5,4-d]pyrimidin-2-yl)-3,8-diazabicyclo [3.2.1]octan-8-yl)prop-2-en-1-one 2,2,2-trifluoroacetate], ≥ 1000 nM.
For `C=CC(=O)N[C@@H]1CCN(c2ncc3ncnc(Nc4ccc(Oc5ccc6c(c5)nnn6C)c(C)c4)c3n2)C1` [Compound 153, (R)-N-(1-(8-((3-methyl-4-((1-methyl-1H-benzo[d][1,2,3]triazol-5-yl)oxy)phenyl)amino)pyrimido [5,4-d]pyrimidin-2-yl)pyrrolidin-3-yl)acrylamide], the IC50 was 100 to 500 nM.
For the compound `C=CC(=O)N1[C@@H](C)CN(c2ncc3ncnc(Nc4ccc(Oc5ccc6c(c5)nnn6C)c(C)c4)c3n2)C[C@@H]1C` [Compound 184, 1-((2S,6S)-2,6-dimethyl-4-(8-((3-methyl-4-((1-methyl-1H-benzo[d][1,2,3]triazol-5-yl)oxy)phenyl)amino)pyrimido[5,4-d]pyrimidin-2-yl)piperazin-1-yl)prop-2-en-1-one], the IC50 was ≥ 1000 nM.
Consider `C=CC(=O)N[C@@H]1CN(c2ccc3ncnc(Nc4ccc(Oc5ccc6c(c5)nnn6C)c(C)c4F)c3n2)CC[C@H]1C` [Compound 309, N-((3S,4R)-1-(4-((2-fluoro-3-methyl-4-((1-methyl-1H-benzo[d][1,2,3]triazol-5-yl)oxy)phenyl)amino)pyrido[3,2-d]pyrimidin-6-yl)-4-methylpiperidin-3-y1)acrylamide], for which the IC50 is 100 to 500 nM.
`C=CC(=O)N1CCN(c2ccc3ncnc(Nc4cc(C)c(Oc5ccc6c(c5)nnn6C)cc4OC)c3n2)CC1` [Compound 79, 1-(4-(4-((2-methoxy-5-methyl-4-((1-methyl-1H-benzo[d][1,2,3]triazol-5-yl)oxy)phenyl)amino)pyrido[3,2-d]pyrimidin-6-yl)piperazin-1-yl)prop-2-en-1-one] came in with an IC50 of 100 to 500 nM.
Turning to `C=CC(=O)N1CCC(Oc2ncc3ncnc(Nc4ccc(Oc5ccc6c(c5)ncn6C)c(C)c4)c3n2)C(F)(F)C1` (centres unmarked) [Compound 393, 1-(3,3-difluoro-4-((8-((3-methyl-4-((1-methyl-1H-benzo[d]imidazol-5-yl)oxy)phenyl)amino)pyrimido[5,4-d]pyrimidin-2-y1)oxy)piperidin-1-yl)prop-2-en-1-one], the IC50 is < 50 nM.
With `C=CC(=O)N1CCN(c2ccc3ncnc(Nc4ccc(Oc5ccc6c(c5)nnn6C)c(C)c4)c3n2)C[C@H]1C` [Compound 73, (R)-1-(2-methyl-4-(4-((3-methyl-4-((1-methyl-1H-benzo[d][1,2,3]triazol-5-yl)oxy)phenyl)amino)pyrido[3,2-d]pyrimidin-6-yl)piperazin-1-yl)prop-2-en-1-one] the figure was 100 to 500 nM; with `C=CC(=O)N1CCN(c2ccc3ncnc(Nc4ccc(Oc5ccc6c(c5)ncn6C(F)F)c(C)c4)c3n2)C[C@H]1C` [Compound 340, (R)-1-(4-(4-((4-((1-(difluoromethyl)-1H-benzo[d]imidazol-5-yl)oxy)-3-methylphenyl)amino)pyrido[3,2-d]pyrimidin-6-yl)-2-methylpiperazin-1-yl)prop-2-en-1-one], 50 to 100 nM.
Then `C=CC(=O)N[C@@H]1C[C@H](C)CN(c2ccc3ncnc(Nc4ccc(Oc5ccc6c(c5)nnn6C)c(C)c4F)c3n2)C1` (single isomer, unassigned) [Compound 336], with ≥ 1000 nM; and `C=CC(=O)N[C@H]1CCCN(c2ncc3ncnc(Nc4ccc(Oc5ccc6c(c5)nnn6C)c(C)c4)c3n2)C1` [Compound 126, (S)-N-(1-(8-((3-methyl-4-((1-methyl-1H-benzo[d][1,2,3]triazol-5-yl)oxy)phenyl)amino)pyrimido [5,4-d]pyrimidin-2-yl)piperidin-3-yl)acrylamide], with 500 to 1000 nM; and `C=CC(=O)NC1CC(N(C)c2ncc3ncnc(Nc4ccc(Oc5ccc6c(c5)nnn6C)c(C)c4)c3n2)C1` (centres unmarked) [Compound 142, N-(3-(methyl(8-((3-methyl-4-((1-methyl-1H-benzo[d][1,2,3]triazol-5-yl)oxy)phenyl)amino)pyrimido [5,4-d]pyrimidin-2-yl)amino)cyclobutyl)acrylamide], with 100 to 500 nM.
With `C=CC(=O)N1CC2CCC(C1)N2c1ncc2ncnc(Nc3ccc(Oc4ccc5c(c4)nnn5C)c(C)c3)c2n1` [Compound 46, 1-(8-(8-((3-methyl-4-((1-methyl-1H-benzo[d][1,2,3]triazol-5-yl)oxy)phenyl)amino)pyrimido[5,4-d]pyrimidin-2-yl)-3,8-diazabicyclo[3.2.1]octan-3-yl)prop-2-en-1-one] the figure was < 50 nM.
Regarding `C=CC(=O)N[C@]1(C)CCN(c2ncc3ncnc(Nc4ccc(Oc5ccc6c(c5)nnn6C)c(C)c4F)c3n2)C1` [Compound 161, (R)-N-(1-(8-((2-fluoro-3-methyl-4-((1-methyl-1H-benzo[d][1,2,3]triazol-5-yl)oxy)phenyl)amino)pyrimido[5,4-d]pyrimidin-2-yl)-3-methylpyrrolidin-3-yl)acrylamide], the IC50 was < 50 nM.
Turning to `C=CC(=O)N1C[C@@H](N(C)c2ccc3ncnc(Nc4ccc(Oc5ccc6c(c5)nnn6C)c(C)c4F)c3n2)CC[C@@H]1C` [Compound 267, 1-((2S,5S)-5-((4-((2-fluoro-3-methyl-4-((1-methyl-1H-benzo[d][1,2,3]triazol-5-yl)oxy)phenyl)amino)pyrido[3,2-d]pyrimidin-6-yl)(methyl)amino)-2-methylpiperidin-1-yl)prop-2-en-1-one], the IC50 is ≥ 1000 nM.
With `Cc1cc(Nc2ncnc3ccc(N4CC5CC(C4)N5C(=O)/C=C/C(F)F)nc23)ccc1Oc1ccc2c(c1)nnn2C` [Compound 359, (E)-4,4-difluoro-1-(3-(4-((3-methyl-4-((1-methyl-1H-benzo[d][1,2,3]triazol-5-yl)oxy)phenyl)amino)pyrido[3,2-d]pyrimidin-6-yl)-3,6-diazabicyclo[3.1.1]heptan-6-yl)but-2-en-1-one] the figure was 100 to 500 nM.
Then `C=CC(=O)N1CCN(c2ccc3ncnc(Nc4ccc(Oc5ccc6c(c5)nnn6C(F)F)c(C)c4F)c3n2)CC1(C)C` [Compound 322, 1-(4-(4-((4-((1-(difluoromethyl)-1H-benzo[d][1,2,3]triazol-5-yl)oxy)-2-fluoro-3-methylphenyl)amino)pyrido[3,2-d]pyrimidin-6-yl)-2,2-dimethylpiperazin-1-yl)prop-2-en-1-one], with 500 to 1000 nM; and `C=CC(=O)N[C@@]1(C)CCCN(c2ncc3ncnc(Nc4ccc(Oc5ccc6c(c5)nnn6C)c(C)c4)c3n2)C1` [Compound 146, (S)-N-(3-methyl-1-(8-((3-methyl-4-((1-methyl-1H-benzo[d][1,2,3]triazol-5-yl)oxy)phenyl)amino)pyrimido[5,4-d]pyrimidin-2-yl)piperidin-3-yl)acrylamide], with 500 to 1000 nM.
With `C=CC(=O)N[C@]1(C)CCCN(c2ncc3ncnc(Nc4ccc(Oc5ccc6c(c5)nnn6C)c(C)c4)c3n2)C1` [Compound 200, (R)-N-(3-methyl-1-(8-((3-methyl-4-((1-methyl-1H-benzo[d][1,2,3]triazol-5-yl)oxy)phenyl)amino)pyrimido[5,4-d]pyrimidin-2-yl)piperidin-3-yl)acrylamide] the figure was < 50 nM.
